# Structures can show the parent of a compound that is named as a salt.
# Biological target: T1, recombinant guanylate cyclase reporter cell line (Rattus norvegicus, UniProt P19686+P20595)
# T1 construct: expressed in transfected cells
# T1 sequence (P19686 1-690): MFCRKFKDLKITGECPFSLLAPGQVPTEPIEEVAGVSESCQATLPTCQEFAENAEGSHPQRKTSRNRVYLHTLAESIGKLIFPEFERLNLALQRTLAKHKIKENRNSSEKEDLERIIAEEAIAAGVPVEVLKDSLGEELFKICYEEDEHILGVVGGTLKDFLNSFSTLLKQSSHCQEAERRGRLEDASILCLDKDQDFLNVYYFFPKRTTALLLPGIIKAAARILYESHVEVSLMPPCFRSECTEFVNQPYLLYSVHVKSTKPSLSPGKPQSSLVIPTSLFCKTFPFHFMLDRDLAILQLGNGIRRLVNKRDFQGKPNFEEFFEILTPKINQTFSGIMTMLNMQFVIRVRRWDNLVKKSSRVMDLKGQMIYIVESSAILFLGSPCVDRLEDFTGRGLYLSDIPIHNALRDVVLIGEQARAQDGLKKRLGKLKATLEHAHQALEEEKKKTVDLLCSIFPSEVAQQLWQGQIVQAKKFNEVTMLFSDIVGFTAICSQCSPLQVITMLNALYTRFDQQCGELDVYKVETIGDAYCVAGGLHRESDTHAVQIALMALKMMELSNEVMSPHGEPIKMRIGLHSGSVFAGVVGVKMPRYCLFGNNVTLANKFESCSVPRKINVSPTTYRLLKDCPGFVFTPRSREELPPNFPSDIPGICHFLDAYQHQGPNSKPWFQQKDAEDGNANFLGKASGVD
# T1 sequence (P20595 1-619): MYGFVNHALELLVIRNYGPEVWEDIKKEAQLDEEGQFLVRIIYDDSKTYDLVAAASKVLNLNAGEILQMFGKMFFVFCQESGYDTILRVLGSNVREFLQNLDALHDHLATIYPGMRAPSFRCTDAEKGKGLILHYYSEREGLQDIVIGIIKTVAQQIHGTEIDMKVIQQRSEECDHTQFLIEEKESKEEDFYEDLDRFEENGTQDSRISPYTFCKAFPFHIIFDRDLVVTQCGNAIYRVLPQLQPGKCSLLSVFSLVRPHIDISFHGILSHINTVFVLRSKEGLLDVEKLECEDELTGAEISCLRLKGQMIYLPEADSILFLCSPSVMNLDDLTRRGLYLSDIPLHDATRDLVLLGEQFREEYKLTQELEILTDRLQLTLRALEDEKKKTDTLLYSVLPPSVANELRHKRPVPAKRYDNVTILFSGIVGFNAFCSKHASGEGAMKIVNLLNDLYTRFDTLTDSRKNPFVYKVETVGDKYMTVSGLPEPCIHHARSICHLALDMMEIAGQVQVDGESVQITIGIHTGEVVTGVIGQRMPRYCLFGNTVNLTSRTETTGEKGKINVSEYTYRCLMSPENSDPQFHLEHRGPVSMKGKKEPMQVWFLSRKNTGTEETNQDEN
# Assay: Effect on a recombinant guanylate cyclase reporter cell line
# Assay type: cell-based
# Details: MEC = minimum effective concentration; in some cases mean values for individual determinations
# In short: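 Compounds tested in a recombinant guanylate cyclase reporter cell line per a published method. Potency expressed as minimum effective concentration (MEC), sometimes as mean of individual determinations.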
row,MEC,SMILES
1,3.0 µM,"Cc1nc2c(OCC3CCC3)nccn2c1C(=O)NCc1ccc(F)c(F)c1 [Example 48, 8-(Cyclobutylmethoxy)-N-(3,4-difluorobenzyl)-2-methylimidazo[1,2-a]pyrazine-3-carboxamide]"
2,1.0 µM,"Cc1cn2c(C(=O)NCCCCCC#N)c(C)nc2c(OCc2c(F)cccc2F)n1 [Example 49, N-(5-Cyanopentyl)-8-[(2,6-difluorobenzyl)oxy]-2,6-dimethylimidazo[1,2-a]pyrazine-3-carboxamide]"
3,3.0 µM,"C=CCONC(=O)c1c(C)nc2c(OCc3c(F)cccc3F)nc(C)cn12 [Example 51, N-(allyloxy)-8-[(2,6-difluorobenzyl)oxy]-2,6-dimethylimidazo[1,2-a]pyrazine-3-carboxamide trifluoroacetate]"
4,0.3 µM,"Cc1cn2c(C(=O)NNc3ccc(F)cc3)c(C)nc2c(OCc2c(F)cccc2F)n1 [Example 52, 8-[(2,6-difluorobenzyl)oxy]-N′-(4-fluorophenyl)-2,6-dimethylimidazo[1,2-a]pyrazine-3-carbohydrazide]"
5,3.0 µM,"Cc1cn2c(C(=O)NNC(=O)CN(C)C)c(C)nc2c(OCc2c(F)cccc2F)n1 [Example 53, 8-[(2,6-difluorobenzyl)oxy]-N′-[(dimethylamino)acetyl]-2,6-dimethylimidazo[1,2-a]pyrazine-3-carbohydrazide]"

# Reference: US20160176880A1, “SUBSTITUTED IMIDAZO[1,2-A]PYRAZINECARBOXAMIDES AND USE THEREOF” (BAYER PHARMA AKTIENGESELLSCHAFT, priority 2013, published 2016)
